Results published in patent US9133115B2 (ACHILLION PHARMACEUTICALS, INC., priority 2008, dated 2015).

Each molecule was assayed on HCV replicon (assay: HCV replicon replication assay (NPT ELISA) in Huh-7 replicon-containing cells). Settings: Hepatitis C virus, 72 h; HCV replicon in Huh-7 cells, three days incubation; read-out: EC50.
Assay type: cell-based
In short: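 Replication was scored by capture ELISA of neomycin phosphotransferase, whose level tracks replicon replication, after graded compound treatment. The cells were Huh-7 harbouring an HCV-IRES/neo/EMCV-IRES/NS3–NS5B/3′-NTR replicon, plated at 6000-7500 cells/well and dosed 24 h later at 60-70% confluence; interferon alpha was the positive control.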

| Structure (SMILES) | EC50 [nM] |
| --- | --- |
| C=C[C@@H]1C[C@]1(NC(=O)[C@@H]1C[C@@H](Oc2cc(-c3ccccc3)nc3cc(OC)ccc23)CN1C(=O)[C@@H](CC(=O)N1C[C@@H]2C[C@H]1CN2C(=O)OC(C)(C)C)C(C)(C)C)C(=O)NS(=O)(=O)C1CC1 [Compound 172, (1S,4S)-tert-butyl 5-((S)-3-((2S,4R)-2-((1R,2S)-1-(cyclopropyl-sulfonylcarbamoyl)-2-vinylcyclopropyl-carbamoyl)-4-(7-methoxy-2-phenylquinolin-4-yloxy)pyrrolidine-1-carbonyl)-4,4-dimethylpentanoyl)-2,5-diazabi-cyclo[2.2.1]heptane-2-carboxylate] | < 1000 |
| C=C[C@@H]1C[C@]1(NC(=O)[C@@H]1C[C@@H](Oc2cc(-c3ccccc3)nc3cc(OC)ccc23)CN1C(=O)[C@@H](CC(=O)N1CC2CC1CO2)C(C)(C)C)C(=O)NS(=O)(=O)C1CC1 (stereo partly drawn) [Compound 174, (2S,4R)-1-((2S)-2-(2-(2-oxa-5-aza-bicyclo[2.2.1]heptan-5-yl)-2-oxoethyl)-3,3-dimethylbutanoyl)-N-((1R,2S)-1-(cyclopropyl-sulfonylcarbamoyl)-2-vinylcyclopropyl)-4-(7-methoxy-2-phenylquinolin-4-yloxy)pyrrolidine-2-carboxamide] | < 1000 |
| C=C[C@@H]1C[C@]1(NC(=O)[C@@H]1C[C@@H](Oc2cc(-c3ccccc3)nc3cc(OC)ccc23)CN1C(=O)[C@@H](CC(=O)N1CCC(N(C2CC2)S(=O)(=O)c2cccc(C(F)(F)F)c2)CC1)C(C)(C)C)C(=O)NS(=O)(=O)C1CC1 [Compound 175, (2S,4R)-1-((S)-2-tert-butyl-4-(4-(N-cyclopropyl-3-(tri-fluoromethyl)phenyl-sulfonamido)piper-idin-1-yl)-4-oxobutanoyl)-N-((1R,2S)-1-(cyclopropyl-sulfonylcarbamoyl)-2-vinylcyclopropyl)-4-(7-methoxy-2-phenylquinolin-4-yloxy)pyrrolidine-2-carboxamide] | < 1000 |
| C=C[C@@H]1C[C@]1(NC(=O)[C@@H]1C[C@@H](Oc2cc(-c3ccccc3)nc3cc(OC)ccc23)CN1C(=O)[C@@H](CC(=O)N1CCCC1C(F)(F)F)C(C)(C)C)C(=O)NS(=O)(=O)C1CC1 (stereo partly drawn) [Compound 176, (2S,4R)-1-((2S)-2-tert-butyl-4-oxo-4-(2-(trifluoro-methyl)pyrrolidin-1-yl)butanoyl)-N-((1R,2S)-1-(cyclopropylsulfonyl-carbamoyl)-2-vinylcyclopropyl)-4-(7-methoxy-2-phenylquinolin-4-yloxy)pyrrolidine-2-carboxamide] | < 1000 |
| C=C[C@@H]1C[C@]1(NC(=O)[C@@H]1C[C@@H](NC(=O)n2c3ccccc3c3ccccc32)CN1C(=O)[C@@H](CC(=O)N1CCCCC1)C(C)(C)C)C(=O)NS(=O)(=O)C1CC1 [Compound 177, N-((3R,5S)-1-((S)-2-tert-butyl-4-oxo-4-(piperidin-1-yl)butanoyl)-5-((1R,2S)-1-(cyclopropyl-sulfonylcarbamoyl)-2-vinylcyclopropyl-carbamoyl)pyr-rolidin-3-yl)-9H-carbazole-9-carboxamide] | < 1000 |
| C=C[C@@H]1C[C@]1(NC(=O)[C@@H]1C[C@@H](NC(=O)n2c3ccccc3c3ccccc32)CN1C(=O)[C@@H](CC(=O)N1CCCC(F)(F)C1)C(C)(C)C)C(=O)NS(=O)(=O)C1CC1 [Compound 178, N-((3R,5S)-1-((S)-2-tert-butyl-4-(3,3-difluoropiperidin-1-yl)-4-oxobutanoyl)-5-((1R,2S)-1-(cyclo-propylsulfonyl-carbamoyl)-2-vinylcyclopropyl-carbamoyl)pyrrolidin-3-yl)-9H-carbazole-9-carboxamide] | < 1000 |
| C=C[C@@H]1C[C@]1(NC(=O)[C@@H]1C[C@@H](Oc2cc(-c3ccccn3)nc3c(Cl)c(OC)ccc23)CN1C(=O)[C@@H](CC(=O)N1CCCCC1)C(C)(C)C)C(=O)NS(=O)(=O)C1CC1 [Compound 179, (2S,4R)-1-((S)-2-tert-butyl-4-oxo-4-(piperidin-1-yl)butanoyl)-4-(8-chloro-7-methoxy-2-(pyridin-2-yl)quinolin-4-yloxy)-N-((1R,2S)-1-(cyclopropyl-sulfonylcarbamoyl)-2-vinylcyclo-propyl)pyrrolidine-2-carboxamide] | < 1000 |
| C=C[C@@H]1C[C@]1(NC(=O)[C@@H]1C[C@@H](Oc2cc(-c3ccccn3)nc3c(Cl)c(OC)ccc23)CN1C(=O)[C@@H](CC(=O)N1CCOCC1)C(C)(C)C)C(=O)NS(=O)(=O)C1CC1 [Compound 180, (2S,4R)-1-((S)-2-tert-butyl-4-morpholino-4-oxobutanoyl)-4-(8-chloro-7-methoxy-2-(pyridin-2-yl)quinolin-4-yloxy)-N-((1R,2S)-1-(cyclopropyl-sulfonylcarbamoyl)-2-vinyl-cyclopropyl)pyr-rolidine-2-carboxamide] | < 1000 |
| C=C[C@@H]1C[C@]1(NC(=O)[C@@H]1C[C@@H](Oc2cc(-c3ccccn3)nc3c(Cl)c(OC)ccc23)CN1C(=O)[C@@H](CC(=O)N1CCCC(F)(F)C1)C(C)(C)C)C(=O)NS(=O)(=O)C1CC1 [Compound 181, (2S,4R)-1-((S)-2-tert-butyl-4-(3,3-difluoropiperidin-1-yl)-4-oxobutanoyl)-4-(8-chloro-7-methoxy-2-(pyridin-2-yl)quinolin-4-yloxy)-N-((1R,2S)-1-(cyclopropyl-sulfonylcarbamoyl)-2-vinyl-cyclopropyl)pyr-rolidine-2-carboxamide] | < 1000 |
| C=C[C@@H]1C[C@]1(NC(=O)[C@@H]1C[C@@H](Oc2cc(-c3ccccc3)nc3cc(OC)ccc23)CN1C(=O)[C@@H](CC(=O)N1CCC(c2ccccc2)CC1)C(C)(C)C)C(=O)NS(=O)(=O)C1CC1 [Compound 182, (2S,4R)-1-((S)-2-tert-butyl-4-oxo-4-(4-phenylpiperidin-1-yl)butanoyl)-N-((1R,2S)-1-(cyclopropylsulfonyl-carbamoyl)-2-vinylcyclopropyl)-4-(7-methoxy-2-phenylquinolin-4-yloxy)pyrrolidine-2-carboxamide] | < 1000 |
| C=C[C@@H]1C[C@]1(NC(=O)[C@@H]1C[C@@H](Oc2cc(-c3ccccc3)nc3cc(OC)ccc23)CN1C(=O)[C@@H](CC(=O)N1CCCC2CCCCC21)C(C)(C)C)C(=O)NS(=O)(=O)C1CC1 (stereo partly drawn) [Compound 183, (2S,4R)-1-((2S)-2-tert-butyl-4-(octa-hydroquinolin-1(2H)-yl)-4-oxobutanoyl)-N-((1R,2S)-1-(cyclopropylsulfonyl-carbamoyl)-2-vinylcyclopropyl)-4-(7-methoxy-2-phenylquinolin-4-yloxy)pyrrolidine-2-carboxamide] | < 1000 |
| C=C[C@@H]1C[C@]1(NC(=O)[C@@H]1C[C@@H](Oc2cc(-c3ccccc3)nc3cc(OC)ccc23)CN1C(=O)[C@@H](CC(=O)N1CC[C@@H](NC(=O)OC(C)(C)C)C1)C(C)(C)C)C(=O)NS(=O)(=O)C1CC1 [Compound 184, tert-butyl (R)-1-((S)-3-((2S,4R)-2-((1R,2S)-1-(cyclo-propylsulfonyl-carbamoyl)-2-vinyl-cyclopropyl-carbamoyl)-4-(7-methoxy-2-phenylquinolin-4-yloxy)pyrrolidine-1-carbonyl)-4,4-dime-thylpentanoyl)pyr-rolidin-3-ylcarbamate] | < 1000 |
| C=CC1C[C@]1(NC(=O)[C@@H]1C[C@@H](Oc2cc(-c3ccccc3)nc3cc(OC)ccc23)CN1C(=O)[C@@H](CC(=O)N1CC(C)CC(C)C1)C(C)(C)C)C(=O)NS(=O)(=O)C1CC1 (stereo partly drawn) [Compound 185] | < 1000 |
| C=C[C@@H]1C[C@]1(NC(=O)[C@@H]1C[C@@H](NC(=O)n2c3ccccc3c3ccccc32)CN1C(=O)[C@@H](CC(=O)N1CCC(F)(F)C1)C(C)(C)C)C(=O)NS(=O)(=O)C1CC1 [Compound 186, N-((3R,5S)-1-((S)-2-tert-butyl-4-(3,3-difluoropyrrolidin-1-yl)-4-oxobutanoyl)-5-((1R,2S)-1-(cyclopropylsulfonyl-carbamoyl)-2-vinyl-cyclopropyl-carbamoyl)pyrrolidin-3-yl)-9H-carbazole-9-carboxamide] | < 1000 |
| C=C[C@@H]1C[C@]1(NC(=O)[C@@H]1C[C@@H](NC(=O)n2c3ccccc3c3ccccc32)CN1C(=O)[C@@H](CC(=O)N1CCC(F)(F)CC1)C(C)(C)C)C(=O)NS(=O)(=O)C1CC1 [Compound 187, N-((3R,5S)-1-((S)-2-tert-butyl-4-(4,4-difluoropiperidin-1-yl)-4-oxobutanoyl)-5-((1R,2S)-1-(cyclopropylsulfonyl-carbamoyl)-2-vinyl-cyclopropyl-carbamoyl)pyrrolidin-3-yl)-9H-carbazole-9-carboxamide] | < 1000 |
| C=C[C@@H]1C[C@]1(NC(=O)[C@@H]1C[C@@H](NC(=O)n2c3ccccc3c3ccccc32)CN1C(=O)[C@@H](CC(=O)N1CCCC(F)C1)C(C)(C)C)C(=O)NS(=O)(=O)C1CC1 (stereo partly drawn) [Compound 188, N-((3R,5S)-1-((2S)-2-tert-butyl-4-(3-fluoropiperidin-1-yl)-4-oxobutanoyl)-5-((1R,2S)-1-(cyclopropylsulfonyl-carbamoyl)-2-vinyl-cyclopropyl-carbamoyl)pyrrolidin-3-yl)-9H-carbazole-9-carboxamide] | < 1000 |
| C=C[C@@H]1C[C@]1(NC(=O)[C@@H]1C[C@@H](NC(=O)n2c3ccccc3c3ccccc32)CN1C(=O)[C@@H](CC(=O)N1CCC(F)CC1)C(C)(C)C)C(=O)NS(=O)(=O)C1CC1 [Compound 189, N-((3R,5S)-1-((S)-2-tert-butyl-4-(4-fluoropiperidin-1-yl)-4-oxobutanoyl)-5-((1R,2S)-1-(cyclo-propylsulfonyl-carbamoyl)-2-vinylcyclopropyl-carbamoyl)pyrrolidin-3-yl)-9H-carbazole-9-carboxamide] | < 1000 |
| C=C[C@@H]1C[C@]1(NC(=O)[C@@H]1C[C@@H](NC(=O)n2c3ccccc3c3ccccc32)CN1C(=O)[C@@H](CC(=O)N1CCC(C(F)(F)F)CC1)C(C)(C)C)C(=O)NS(=O)(=O)C1CC1 [Compound 190, N-((3R,5S)-1-((S)-2-tert-butyl-4-oxo-4-(4-(trifluoromethyl)piper-idin-1-yl)butanoyl)-5-((1R,2S)-1-(cyclopropylsulfonyl-carbamoyl)-2-vinylcyclopropyl-carbamoyl)pyrrolidin-3-yl)-9H-carbazole-9-carboxamide] | < 1000 |
